From US20260374750A1, “LIGANDS SPECIFICALLY TARGETING VESICULAR GLUTAMATE TRANSPORTERS FOR SUPER-RESOLUTION IMAGING” (SORBONNE UNIVERSITÉ, priority 2021, published 2026)

System: VGLUTs (GLU vesicular transport)
Assay: Vesicular glutamate reuptake test ([3H]-glutamate, synaptic vesicles)
Type: biochemical, rat
Details: for EC50: vesicular glutamate transport; for potency in words (EC50): based on EC50
Method: The EC50 was also determined for several of the compounds of the invention.
The vesicular glutamate reuptake was tested as previously described (Kish and Ueda, 1989; Naito and Ueda, 1985; Pietrancosta et al., 2010) with minor modifications. Aliquots of synaptic vesicles […] (obtained by differential centrifugation of rat cortex) were diluted in a solution containing 4 mM HEPES-KOH, pH 7.4 and 0.32M sucrose. The tested compounds were dissolved in 1% ethanol, 1% DMSO (pH was adjusted to 7.4 with 5% KOH) to initial concentrations comprised between 2 mM and 200 μM. The compounds were then diluted to desired final concentrations in a solution containing 10 mM HEPES-KOH, pH 7.4, 0.32 M sucrose, 4 mM KCl, 4 mM MgSO4 (named TPU). The tested compounds were pre-incubated in a solution containing 3 mM ATP-Mg, 1 mM L-aspartic acid, 100 μM glutamate and 0.4 mM […] and 0.4 μM [3H]-Glutamate (1.547 TBq/mmol). After 4 min at 37 °C, the reuptake reaction was initiated by the addition of rat synaptic vesicles. This mixture was incubated for 10 min at 37 °C before adding ice-cold TPU (3.5 mL) and rapidly filtering it through a membrane filter ([…], Millipore MF reference HAWP02500) using a vacuum collector. The filters were washed five times with 3.5 mL of cold TPU and placed in scintillation vials with a scintillation cocktail (optiphase hisafe 3, reference 1200-437, Perkin Elmer). The radioactivity related to the filters was measured in a Beckman LS 6500 scintillation spectrophotometer. The values obtained in the absence of ATP-Mg or in the presence of Carbonyl [COMPOUND LEFT OUT] 3-chlorophenylhydrazone (CCCP, 50 μM reference Sigma C2759) were used to determine the non-specific activity.

Row | EC50 (coumarin-derived compounds) [µM] | SMILES | % inhibition of GLU vesicular transport at 20 μM (coumarin-derived compounds) [%] | also measured
1 | – | O=C(O)c1cc2cc(/N=N/c3ccc(Br)cc3)ccc2oc1=O [LSP9-3160, (E)-6-((4-bromophenyl)diazenyl)-2-oxo-2H-chromene-3-carboxylic Acid] | 14 | –
2 | – | COc1cc(/N=N/c2ccc(Br)cc2)cc2cc(C(=O)O)c(=O)oc12 [LSP9-3162] | 42 | –
3 | – | COc1cc(Br)ccc1/N=N/c1cc(OC)c2oc(=O)c(C(=O)O)cc2c1 [LSP9-3163] | 9 | –
4 | 30 | COc1cc2oc(=O)c(C(=O)O)cc2cc1/N=N/c1ccc(Br)cc1 [LSP9-3164] | 40 | –
5 | – | COc1cc2oc(=O)c(C(=O)O)cc2cc1/N=N/c1ccc(-c2ccc(N)cc2)cc1 [LSP9-4089, (E)-6-((4′-aminobiphenyl-4-yl)diazenyl)-7-methoxy-2-oxo-2H-chromene-3-carboxylic Acid] | 35 | –
6 | 50 | COc1cc2oc(=O)c(C(=O)O)cc2cc1/N=N/c1ccccc1 [LSP9-4108, (E)-7-methoxy-2-oxo-6-(phenyldiazenyl)-2H-chromene-3-carboxylic Acid] | 30 | –
7 | – | O=C(O)c1cc2cc(/N=N/c3ccccc3)ccc2oc1=O [LSP9-4126, (E)-2-oxo-6-(phenyldiazenyl)-2H-chromene-3-carboxylic Acid] | 5 | –
8 | – | COc1cc(Br)ccc1/N=N/c1cc2cc(C(=O)O)c(=O)oc2cc1OC [LSP9-4150] | 15 | –
9 | – | O=C(O)c1cc2cc(/N=N/c3ccccc3)c(O)cc2oc1=O [LSP9-4153, (E)-7-hydroxy-2-oxo-6-(phenyldiazenyl)-2H-chromene-3-carboxylic Acid] | 12 | –
10 | – | O=C(O)c1cc2cc(/N=N/c3ccc(Br)cc3)c(O)cc2oc1=O [LSP9-5096, (E)-6-((4-bromophenyl)diazenyl)-7-hydroxy-2-oxo-2H-chromene-3-carboxylic Acid] | 10 | –
11 | – | CCOC(=O)c1cc(C(=O)OCC)c2cc(-c3ccc(-c4ccc(-c5ccc6nc(C(=O)OCC)cc(C(=O)OCC)c6c5)cc4)cc3)ccc2n1 [LSP13-1153-YL153, Tetraethyl 6,6′-(biphenyl-4,4′-diyl)diquinoline-2,4-dicarboxylate] | – | % inhibition of GLU vesicular transport at 20 μM (quinoline-derived compounds): 69%; EC50 (quinoline-derived compounds): 12.3 µM
12 | – | O=C(O)c1cc(C(=O)O)c2cc(-c3ccc(-c4ccc(-c5ccc6nc(C(=O)O)cc(C(=O)O)c6c5)cc4)cc3)ccc2n1 [LSP13-1160-YL160, 6,6′-(Biphenyl-4,4′-diyl)diquinoline-2,4-dicarboxylic Acid] | – | % inhibition of GLU vesicular transport at 20 μM (quinoline-derived compounds): 100%; EC50 (quinoline-derived compounds): 3.6 µM
13 | – | O=C(O)c1cc(C(=O)O)c2cc(/C=C/c3ccc(-c4ccc(/C=C/c5ccc6nc(C(=O)O)cc(C(=O)O)c6c5)cc4)cc3)ccc2n1 [LSP13-1173-YL173, 6,6′-2,2′-(biphenyl-4,4′-diyl)bis(ethene-2,1-diyl)diquinoline-2,4-dicarboxylic Acid] | – | % inhibition of GLU vesicular transport at 20 μM (quinoline-derived compounds): 72%; EC50 (quinoline-derived compounds): 15 µM
14 | – | O=C(O)c1cc2cc(/C=C/c3ccccc3)ccc2oc1=O [LSP16-2074, (E)-2-oxo-6-styryl-2H-chromene-3-carboxylic Acid] | 30 | –
15 | – | COc1cc2oc(=O)c(C(=O)O)cc2cc1/C=C/c1ccccc1 [LSP16-2077, (E)-7-methoxy-2-oxo-6-styryl-2H-chromene-3-carboxylic acid] | 30 | –
16 | – | CCN(CC)c1cc2oc(=O)c(C(=O)O)cc2cc1C#Cc1ccccc1 [LSP17-1042, 7-(diethylamino)-2-oxo-6-(phenylethynyl)-2H-chromene-3-carboxylic Acid] | 12 | –
17 | – | O=C(O)c1cc2cc(C#Cc3ccccc3)ccc2oc1=O [LSP17-1044, 2-oxo-6-(phenylethynyl)-2H-chromene-3-carboxylic Acid] | 30 | –
18 | 21 | COc1cc2oc(=O)c(C(=O)O)cc2cc1C#Cc1ccccc1 [LSP17-1046, 7-methoxy-2-oxo-6-(phenylethynyl)-2H-chromene-3-carboxylic Acid] | 48 | –
19 | 23 | O=C(O)c1cc2cc(-n3cc(-c4ccccc4)nn3)ccc2oc1=O [LSP17-1100, 2-oxo-6-(4-phenyl-1H-1,2,3-triazol-1-yl)-2H-chromene-3-carboxylic Acid] | 48 | –
20 | 25 | COc1cc2oc(=O)c(C(=O)O)cc2cc1-n1cc(-c2ccccc2)nn1 [LSP17-1116, 7-methoxy-2-oxo-6-(4-phenyl-1H-1,2,3-triazol-1-yl)-2H-chromene-3-carboxylic Acid] | 45 | –
21 | 5 | Nc1ccc(-c2ccc(C#Cc3ccc4oc(=O)c(C(=O)O)cc4c3)cc2)cc1 [LSP17-1125, 6-((4′-amino-[1,1′-biphenyl]-4-yl)ethynyl)-2-oxo-2H-chromene-3-carboxylic Acid] | 100 | potency in words (EC50): effective at a very low concentration
22 | 5 | CCN(CC)c1cc2oc(=O)c(C(=O)O)cc2cc1C#Cc1ccc(-c2ccc(N)cc2)cc1 [LSP17-1126, 6-((4′-amino-[1,1′-biphenyl]-4-yl)ethynyl)-7-(diethylamino)-2-oxo-2H-chromene-3-carboxylic Acid] | 100 | potency in words (EC50): effective at a very low concentration
23 | – | COc1cc2oc(=O)c(C(=O)O)cc2cc1C#Cc1ccc(-c2ccc(N)cc2)cc1 [LSP17-1127, 6-((4′-amino-[1,1′-biphenyl]-4-yl)ethynyl)-7-methoxy-2-oxo-2H-chromene-3-carboxylic Acid] | 40 | –
24 | 15 | CCN(CC)c1cc2oc(=O)c(C(=O)O)cc2cc1-n1cc(-c2ccccc2)nn1 [LSP17-1153, 7-(diethylamino)-2-oxo-6-(4-phenyl-1H-1,2,3-triazol-1-yl)-2H-chromene-3-carboxylic Acid] | 62 | –
25 | 20 | CCN(CC)c1cc2oc(=O)c(C(=O)O)cc2cc1-n1cc(-c2ccc(-c3ccc(N)cc3)cc2)nn1 [LSP17-1154, 6-(4-(4′-amino-[1,1′-biphenyl]-4-yl)-1H-1,2,3-triazol-1-yl)-7-(diethylamino)-2-oxo-2H-chromene-3-carboxylic Acid] | 50 | –
26 | 267 | O=C(O)c1cc2cc(C#Cc3ccccc3)c(O)cc2oc1=O [LSP17-1177, 7-hydroxy-2-oxo-6-(phenylethynyl)-2H-chromene-3-carboxylic Acid] | 20 | –
